According to ChEMBL document CHEMBL1201862, “PubChem BioAssay data set” (2004):
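Values below derive from 48-hour exposures of cells grown in 96-well plates, with endpoints linearly interpolated between the two concentrations bracketing the appropriate inhibition level. GI50 marks 50% less growth.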 Activity calls are given as the source filed them. No stated cut-off is given here; in the data, active = GI50 up to about 1.1 µM and inactive = higher.

How the values were obtained:
Test in all cases: inhibition of tumour cell growth, NCI panel, 48 h
A549 = tested on: A549
RPMI-8226 = tested on: RPMI-8226
TK-10 = tested on: TK-10
KM12 = tested on: KM12
LOX IMVI = tested on: LOX IMVI
A498 = tested on: A498
SK-OV-3 = tested on: SK-OV-3
OVCAR-8 = tested on: OVCAR-8
UO-31 = tested on: UO-31
BT-549 = tested on: BT-549
COLO 205 = tested on: COLO 205
HCT-15 = tested on: HCT-15
SW-620 = tested on: SW-620
HOP-62 = tested on: HOP-62
PC-3 = tested on: PC-3
IGROV-1 = tested on: IGROV-1
NCI-H460 = tested on: NCI-H460
Malme-3M = tested on: Malme-3M
CCRF-CEM = tested on: CCRF-CEM
Hs-578T = tested on: Hs-578T
M14 = tested on: M14
DU-145 = tested on: DU-145
SF-268 = tested on: SF-268
SR = tested on: SR
NCI-H23 = tested on: NCI-H23
NCI-H226 = tested on: NCI-H226
SF-539 = tested on: SF-539
SNB-75 = tested on: SNB-75
NCI/ADR-RES = tested on: NCI/ADR-RES
HCC 2998 = tested on: HCC 2998
UACC-257 = tested on: UACC-257
ACHN = tested on: ACHN
SK-MEL-2 = tested on: SK-MEL-2
MDA-N = tested on: MDA-N
SN12C = tested on: SN12C
HT-29 = tested on: HT-29
T47D = tested on: T47D
HCT-116 = tested on: HCT-116
MCF7 = tested on: MCF7
SK-MEL-28 = tested on: SK-MEL-28
OVCAR-3 = tested on: OVCAR-3
MDA-MB-435 = tested on: MDA-MB-435
K562 = tested on: K562
OVCAR-5 = tested on: OVCAR-5
CAKI-1 = tested on: CAKI-1
EKVX = tested on: EKVX
OVCAR-4 = tested on: OVCAR-4
SNB-19 = tested on: SNB-19
HL-60 = tested on: HL-60
NCI-H522 = tested on: NCI-H522
UACC-62 = tested on: UACC-62
786-0 = tested on: 786-0
HOP-92 = tested on: HOP-92
U-251 = tested on: U-251
SK-MEL-5 = tested on: SK-MEL-5
MOLT-4 = tested on: MOLT-4
MDA-MB-231 = tested on: MDA-MB-231
RXF 393 = tested on: RXF 393
SF-295 = tested on: SF-295

CCCC(=O)[O-].[Na+] [SODIUM BUTYRATE]
GI50 (A549): 7830 µM (inactive) | GI50 (RPMI-8226): 243 µM (inactive) | GI50 (TK-10): 719 µM (inactive) | GI50 (KM12): 9440 µM (inactive) | GI50 (LOX IMVI): 3520 µM (inactive) | GI50 (A498): 4400 µM (inactive) | GI50 (SK-OV-3): 3030 µM (inactive) | GI50 (OVCAR-8): 1990 µM (inactive) | GI50 (UO-31): 2520 µM (inactive) | GI50 (BT-549): 8040 µM (inactive) | GI50 (COLO 205): 533 µM (inactive) | GI50 (HCT-15): 10600 µM | GI50 (SW-620): 2310 µM (inactive) | GI50 (HOP-62): 7210 µM (inactive) | GI50 (PC-3): 7100 µM (inactive) | GI50 (IGROV-1): 4450 µM (inactive) | GI50 (NCI-H460): 2390 µM (inactive) | GI50 (Malme-3M): 543 µM (inactive) | GI50 (CCRF-CEM): 2050 µM (inactive) | GI50 (Hs-578T): 251 µM (inactive) | GI50 (M14): 5460 µM (inactive) | GI50 (DU-145): 2370 µM (inactive) | GI50 (SF-268): 8280 µM (inactive) | GI50 (SR): 789 µM (inactive) | GI50 (NCI-H23): 3970 µM (inactive) | GI50 (NCI-H226): 6250 µM (inactive) | GI50 (SF-539): 3000 µM (inactive) | GI50 (SNB-75): 9680 µM (inactive) | GI50 (NCI/ADR-RES): 843 µM (inactive) | GI50 (HCC 2998): 400 µM (inactive) | GI50 (UACC-257): 1000 µM (inactive) | GI50 (ACHN): 4470 µM (inactive) | GI50 (SK-MEL-2): 4720 µM (inactive) | GI50 (MDA-N): 3580 µM (inactive) | GI50 (SN12C): 5310 µM (inactive) | GI50 (HT-29): 4000 µM (inactive) | GI50 (T47D): 2420 µM (inactive) | GI50 (HCT-116): 1390 µM (inactive) | GI50 (MCF7): 1000 µM (inactive) | GI50 (SK-MEL-28): 4170 µM (inactive) | GI50 (OVCAR-3): 9910 µM (inactive) | GI50 (MDA-MB-435): 3470 µM (inactive) | GI50 (K562): 1000 µM (inactive) | GI50 (OVCAR-5): 7980 µM (inactive) | GI50 (CAKI-1): 2770 µM (inactive) | GI50 (EKVX): 18700 µM (inactive) | GI50 (OVCAR-4): 18700 µM (inactive) | GI50 (SNB-19): 8170 µM (inactive) | GI50 (HL-60): 721 µM (inactive) | GI50 (NCI-H522): 3440 µM (inactive) | GI50 (UACC-62): 1650 µM (inactive) | GI50 (786-0): 10600 µM (inactive) | GI50 (HOP-92): 5680 µM (inactive) | GI50 (U-251): 4790 µM (inactive) | GI50 (SK-MEL-5): 635 µM (inactive) | GI50 (MOLT-4): 3730 µM (inactive) | GI50 (MDA-MB-231): 5710 µM (inactive) | GI50 (RXF 393): 8390 µM (inactive) | GI50 (SF-295): 7660 µM (inactive)

O=c1[nH]nc(-c2ccccc2)n1/N=C/c1cccnc1
GI50 (A549): > 100 µM (inactive) | GI50 (RPMI-8226): 74 µM (inactive) | GI50 (TK-10): > 100 µM (inactive) | GI50 (KM12): 23.4 µM (inactive) | GI50 (LOX IMVI): > 100 µM (inactive) | GI50 (A498): 27 µM (inactive) | GI50 (OVCAR-8): > 100 µM (inactive) | GI50 (UO-31): > 100 µM (inactive) | GI50 (BT-549): 39.2 µM (inactive) | GI50 (HCT-15): 61.1 µM | GI50 (SW-620): > 100 µM (inactive) | GI50 (HOP-62): > 100 µM (inactive) | GI50 (PC-3): 52.2 µM (inactive) | GI50 (IGROV-1): > 100 µM (inactive) | GI50 (NCI-H460): 43.8 µM (inactive) | GI50 (Malme-3M): > 100 µM (inactive) | GI50 (CCRF-CEM): 69.5 µM (inactive) | GI50 (Hs-578T): 37.5 µM (inactive) | GI50 (M14): > 100 µM (inactive) | GI50 (DU-145): 78.5 µM (inactive) | GI50 (SF-268): > 100 µM (inactive) | GI50 (SR): 52.7 µM (inactive) | GI50 (NCI-H23): > 100 µM (inactive) | GI50 (NCI-H226): 57.9 µM (inactive) | GI50 (SF-539): 40.4 µM (inactive) | GI50 (SNB-75): 50.6 µM (inactive) | GI50 (NCI/ADR-RES): 69.8 µM (inactive) | GI50 (HCC 2998): 95.5 µM (inactive) | GI50 (UACC-257): > 100 µM (inactive) | GI50 (ACHN): 63.7 µM (inactive) | GI50 (MDA-N): 34.9 µM (inactive) | GI50 (SN12C): 65 µM (inactive) | GI50 (HT-29): 93.1 µM (inactive) | GI50 (T47D): 31.6 µM (inactive) | GI50 (HCT-116): 54.3 µM (inactive) | GI50 (MCF7): 47.1 µM (inactive) | GI50 (SK-MEL-28): > 100 µM (inactive) | GI50 (OVCAR-3): > 100 µM (inactive) | GI50 (MDA-MB-435): 64.7 µM (inactive) | GI50 (K562): 40.5 µM (inactive) | GI50 (OVCAR-5): 92.5 µM (inactive) | GI50 (CAKI-1): 25.1 µM (inactive) | GI50 (EKVX): 71.1 µM (inactive) | GI50 (SNB-19): > 100 µM (inactive) | GI50 (HL-60): 50.2 µM (inactive) | GI50 (NCI-H522): 61.8 µM (inactive) | GI50 (786-0): > 100 µM (inactive) | GI50 (HOP-92): 61.9 µM (inactive) | GI50 (U-251): 76.4 µM (inactive) | GI50 (SK-MEL-5): 57 µM (inactive) | GI50 (MOLT-4): 64 µM (inactive) | GI50 (MDA-MB-231): 48.8 µM (inactive) | GI50 (RXF 393): 34.4 µM (inactive) | GI50 (SF-295): > 100 µM (inactive)

COc1c2ccoc2c(OC)c2oc(=O)ccc12 [ISOPIMPINELLIN]
GI50 (A549): > 100 µM (inactive) | GI50 (RPMI-8226): > 100 µM (inactive) | GI50 (TK-10): > 100 µM (inactive) | GI50 (KM12): > 100 µM (inactive) | GI50 (LOX IMVI): > 100 µM (inactive) | GI50 (A498): > 100 µM (inactive) | GI50 (OVCAR-8): > 100 µM (inactive) | GI50 (UO-31): 95.7 µM (inactive) | GI50 (BT-549): > 100 µM (inactive) | GI50 (COLO 205): > 100 µM (inactive) | GI50 (HCT-15): > 100 µM | GI50 (SW-620): > 100 µM (inactive) | GI50 (HOP-62): > 100 µM (inactive) | GI50 (PC-3): > 100 µM (inactive) | GI50 (IGROV-1): > 100 µM (inactive) | GI50 (NCI-H460): > 100 µM (inactive) | GI50 (CCRF-CEM): > 100 µM (inactive) | GI50 (Hs-578T): 62.1 µM (inactive) | GI50 (M14): > 100 µM (inactive) | GI50 (DU-145): > 100 µM (inactive) | GI50 (SF-268): > 100 µM (inactive) | GI50 (SR): > 100 µM (inactive) | GI50 (NCI-H23): > 100 µM (inactive) | GI50 (NCI-H226): 99.1 µM (inactive) | GI50 (SF-539): > 100 µM (inactive) | GI50 (SNB-75): 13.1 µM (inactive) | GI50 (NCI/ADR-RES): > 100 µM (inactive) | GI50 (HCC 2998): > 100 µM (inactive) | GI50 (UACC-257): > 100 µM (inactive) | GI50 (ACHN): > 100 µM (inactive) | GI50 (MDA-N): > 100 µM (inactive) | GI50 (SN12C): > 100 µM (inactive) | GI50 (HT-29): > 100 µM (inactive) | GI50 (T47D): > 100 µM (inactive) | GI50 (HCT-116): > 100 µM (inactive) | GI50 (MCF7): > 100 µM (inactive) | GI50 (SK-MEL-28): > 100 µM (inactive) | GI50 (OVCAR-3): > 100 µM (inactive) | GI50 (MDA-MB-435): > 100 µM (inactive) | GI50 (K562): > 100 µM (inactive) | GI50 (OVCAR-5): > 100 µM (inactive) | GI50 (CAKI-1): 50.5 µM (inactive) | GI50 (EKVX): 70.1 µM (inactive) | GI50 (OVCAR-4): > 100 µM (inactive) | GI50 (SNB-19): > 100 µM (inactive) | GI50 (HL-60): > 100 µM (inactive) | GI50 (NCI-H522): > 100 µM (inactive) | GI50 (UACC-62): 36.2 µM (inactive) | GI50 (786-0): > 100 µM (inactive) | GI50 (HOP-92): 1.99 µM (inactive) | GI50 (U-251): > 100 µM (inactive) | GI50 (SK-MEL-5): 94.4 µM (inactive) | GI50 (MOLT-4): > 100 µM (inactive) | GI50 (MDA-MB-231): > 100 µM (inactive) | GI50 (RXF 393): 45.8 µM (inactive) | GI50 (SF-295): > 100 µM (inactive)
